{"source": "patent US11534457B2", "about": "“Use of dextran sulfate” (priority 2017, dated 2022)", "key": {"[1]": {"biological_target": "protein-protein interaction between oligomeric amyloid-β and PrP^c (Homo sapiens, UniProt P04156)", "assay_type": "binding"}, "[2]": {"tested_on": "KF3CT system [keratinocytes and HDFn+(IL-1β, TNFα, IFNγ and TGFβ)]", "assay": "BioMAP KF3CT system", "assay_type": "cell-based, Human", "from_the_text": "(§1) In this study LMW-DS was characterized by profiling in the BioMAP® Diversity PLUS panel. The BioMAP® panel consists of human primary cell-based systems designed to model different aspects of the human body in an in vitro format. The 12 systems in the BioMAP® Diversity PLUS panel (Table 32) allow test agent characterization in an unbiased way across a broad set of systems modeling various human disease states. The BioMA®P systems are constructed with one or more primary cell types from healthy human donors, with stimuli, such as cytokines or growth factors, added to capture relevant signaling networks that naturally occur in human tissue or pathological conditions. […]\n(§2) Systems are derived from either single cell types or co-culture systems. […] Test agents prepared in either DMSO (small molecules; final concentration 0.1%) or PBS (biologics) are added at the indicated concentrations 1-hr before stimulation, and remain in culture for 24-hrs or as otherwise indicated (48-hrs, MyoF system; 72-hrs, BT system (soluble readouts); 168-hrs, BT system (secreted IgG)). […] Soluble factors from supernatants are quantified using either HTRF® detection, bead-based multiplex immunoassay or capture ELISA. Overt adverse effects of test agents on cell proliferation and viability (cytotoxicity) are detected by sulforhodamine B (SRB) staining, for adherent cells, and alamarBlue® reduction for cells in suspension. […]"}, "[3]": {"tested_on": "BT system [CD19^+ B cells and PBMC+(a-IgM and TCR ligands)]", "assay": "BioMAP BT system", "assay_type": "cell-based, Human", "from_the_text": "In this study LMW-DS was characterized by profiling in the BioMAP® Diversity PLUS panel. The BioMAP® panel consists of human primary cell-based systems designed to model different aspects of the human body in an in vitro format. The 12 systems in the BioMAP® Diversity PLUS panel (Table 32) allow test agent characterization in an unbiased way across a broad set of systems modeling various human disease states. The BioMA®P systems are constructed with one or more primary cell types from healthy human donors, with stimuli, such as cytokines or growth factors, added to capture relevant signaling networks that naturally occur in human tissue or pathological conditions. Vascular biology is modeled in both a Th1 (3C system) and a Th2 (4H system) inflammatory environment, as well as in a Th1 inflammatory state specific to arterial smooth muscle cells (CASM3C system). Additional systems recapitulate aspects of the systemic immune response including monocyte-driven Th1 inflammation (LPS system) or T cell stimulation (SAg system), chronic Th1 inflammation driven by macrophage activation (IMphg system) and the T cell-dependent activation of B cells that occurs in germinal centers (BT system). The BE3C system (Th1) and the BF4T system (Th2) represent airway inflammation of the lung, while the MyoF system models myofibroblast-lung tissue remodeling. Lastly, skin biology is addressed in the KF3CT system modeling Th1 cutaneous inflammation and the HDF3CGF system modeling wound healing.\nFour concentrations of LMW-DS (150 nM, 440 nM, 1.3 μM, 4 μM) were investigated in the BioMAP® Diversity PLUS panel by Eurofins.\nCell types and stimuli used in each system are as follows: 3C system [HUVEC+(IL-1β, TNFα and IFNγ)], 4H system [HUVEC+(IL-4 and histamine)], LPS system [PBMC and HUVEC+LPS (TLR4 ligand)], SAg system [PBMC and HUVEC+TCR ligands], BT system [CD19^+ B cells and PBMC+(a-IgM and TCR ligands)], BF4T system [bronchial epithelial cells and HDFn+(TNFα and IL-4)], BE3C system [bronchial epithelial cells+(IL-1β, TNFα and IFNγ)], CASM3C system [coronary artery smooth muscle cells+(IL-1β, TNFα and IFNγ)], HDF3CGF system [HDFn+(IL-1β, TNFα, IFNγ, EGF, bFGF and PDGF-BB)], KF3CT system [keratinocytes and HDFn+(IL-1β, TNFα, IFNγ and TGFβ)], MyoF system [differentiated lung myofibroblasts+(TNFα and TGFβ)] and /Mphg system [HUVEC and M1 macrophages+Zymosan (TLR2 ligand)].\nSystems are derived from either single cell types or co-culture systems. Adherent cell types are cultured in 96 or 384-well plates until confluence, followed by the addition of PBMC (SAg and LPS systems). The BT system consists of CD19+ B cells co-cultured with PBMC and stimulated with a BCR activator and low levels of TCR stimulation. Test agents prepared in either DMSO (small molecules; final concentration 0.1%) or PBS (biologics) are added at the indicated concentrations 1-hr before stimulation, and remain in culture for 24-hrs or as otherwise indicated (48-hrs, MyoF system; 72-hrs, BT system (soluble readouts); 168-hrs, BT system (secreted IgG)). Each plate contains drug controls (e.g., legacy control test agent colchicine at 1.1 μM), negative controls (e.g., non-stimulated conditions) and vehicle controls (e.g., 0.1% DMSO) appropriate for each system. Direct ELISA is used to measure biomarker levels of cell-associated and cell membrane targets. Soluble factors from supernatants are quantified using either HTRF® detection, bead-based multiplex immunoassay or capture ELISA. Overt adverse effects of test agents on cell proliferation and viability (cytotoxicity) are detected by sulforhodamine B (SRB) staining, for adherent cells, and alamarBlue® reduction for cells in suspension. For proliferation assays, individual cell types are cultured at subconfluence and measured at time points optimized for each system (48-hrs: 3C and CASM3C systems; 72-hrs: BT and HDF3CGF systems; 96-hrs: SAg system). […]"}, "[4]": {"tested_on": "HDF3CGF system [HDFn+(IL-1β, TNFα, IFNγ, EGF, bFGF and PDGF-BB)]", "assay": "BioMAP HDF3CGF system", "assay_type": "cell-based, Human", "from_the_text": "as §1, with “conditions. Vascular biology is modeled in both a Th1 (3C system) and a Th2 (4H system) inflammatory environment, as well as in a Th1 inflammatory state specific to arterial smooth muscle cells (CASM3C system).” for “conditions.”\nas §2, with “suspension. For proliferation assays, individual cell types are cultured at subconfluence and measured at time points optimized for each system (48-hrs: 3C and CASM3C systems; 72-hrs: BT and HDF3CGF systems; 96-hrs: SAg system).” for “suspension.”"}, "[5]": {"tested_on": "/Mphg system [HUVEC and M1 macrophages+Zymosan (TLR2 ligand)]", "assay": "BioMAP /Mphg system", "assay_type": "cell-based, Human", "from_the_text": "as §1, with “conditions. Vascular biology is modeled in both a Th1 (3C system) and a Th2 (4H system) inflammatory environment, as well as in a Th1 inflammatory state specific to arterial smooth muscle cells (CASM3C system).” for “conditions.”\nSystems are derived from either single cell types or co-culture systems. […] Test agents prepared in either DMSO (small molecules; final concentration 0.1%) or PBS (biologics) are added at the indicated concentrations 1-hr before stimulation, and remain in culture for 24-hrs or as otherwise indicated (48-hrs, MyoF system; 72-hrs, BT system (soluble readouts); 168-hrs, BT system (secreted IgG)). […]"}, "[6]": {"tested_on": "4H system [HUVEC+(IL-4 and histamine)]", "assay": "BioMAP 4H system", "assay_type": "cell-based, Human", "from_the_text": "as §1, §2"}}, "note": "Entries after “also recorded” stand apart in the source; their conditions may differ."}
{"substance": "low molecular weight dextran sulfate [LMW-DS]", "values": [{"measurement": "Competable binding (%)", "setting": "[1]", "value": "85 ± 4", "unit": "%"}, {"measurement": "Hill coefficient", "setting": "[1]", "value": "1.00 ± 0.21"}, {"measurement": "IC50", "setting": "[1]", "value": "0.42 ± 0.16", "unit": "µg/mL"}, {"measurement": "competition for the protein-protein interaction (in words)", "setting": "[1]", "value": "in a concentration dependent manner as did LMW-DS"}, {"measurement": "Decreased biomarker activity", "setting": "[2]", "value": "MCP-1"}, {"measurement": "Increased biomarker activity", "setting": "[2]", "value": "IL-8"}, {"measurement": "IL-17A", "setting": "[3]", "value": "decreased"}, {"measurement": "IL-17F", "setting": "[3]", "value": "decreased"}, {"measurement": "antiproliferative effects on B cells", "setting": "[3]", "value": "without any antiproliferative effects"}, {"measurement": "sIgG", "setting": "[3]", "value": "decreased"}, {"measurement": "Decreased biomarker activity", "setting": "[3]; BT system", "value": "sIgG, sIL-17F"}, {"measurement": "Increased biomarker activity", "setting": "[3]; BT system", "value": "sIL-17A"}, {"measurement": "Decreased biomarker activity", "setting": "[4]; HDF3CGF system", "value": "VCAM-1, IP-10,; also recorded: ITAC, MIG, M-CSF"}, {"measurement": "Increased biomarker activity", "setting": "[4]; HDF3CGF system", "value": "EGFR, MMP-1,; also recorded: PAI-1"}, {"measurement": "key inflammation biomarkers including MIG, VCAM, IP-10 and ITAC", "setting": "[4]; all tested concentrations", "value": "decreased over all tested concentrations"}, {"measurement": "Increased biomarker activity", "setting": "[5]", "value": "IL-8, CD69"}, {"measurement": "Increased biomarker activity", "setting": "[6]", "value": "uPAR"}]}
